Results reported in article PMC5218480 (PLoS ONE, 2017).

System: MV-4-11 cells
Assay: Gene expression microarray analysis (Affymetrix PrimeView) and GSEA
Type: cell-based, human
Set-up: RFU PODN (11730768_x_at) / Fold change /veh PODN (11730768_x_at) / RFU LINC00158 (11744669_a_at) / Fold change /veh LINC00158 (11744669_a_at) / RFU DUSP10 (11751237_a_at) / Fold change /veh DUSP10 (11751237_a_at) / RFU ID3 (11757404_x_at) / Fold change /veh ID3 (11757404_x_at) / RFU PLEKHG5 (11737974_s_at) / Fold change /veh PLEKHG5 (11737974_s_at) / RFU LRRC4B (11730491_at) / Fold change /veh LRRC4B (11730491_at) / RFU GIMAP4 (11747438_a_at) / Fold change /veh GIMAP4 (11747438_a_at) / RFU KRT8 (11758183_x_at) / Fold change /veh KRT8 (11758183_x_at) / RFU CNN1 (11734310_a_at) / Fold change /veh CNN1 (11734310_a_at) / RFU VPS37D (11726825_at) / Fold change /veh VPS37D (11726825_at) / RFU C10orf10 (11716522_x_at) / Fold change /veh C10orf10 (11716522_x_at) / RFU KIR2DL2 /// KIR2DL4 /// KIR2DL5A /// KIR2DL5B /// KIR2DS1 /// KIR2DS2 /// KIR2DS3 /// KIR2DS4 /// KIR3DL3 /// KIR3DL3 /// KIR3DS1 (11738374_at) / Fold change /veh KIR2DL2 /// KIR2DL4 /// KIR2DL5A /// KIR2DL5B /// KIR2DS1 /// KIR2DS2 /// KIR2DS3 /// KIR2DS4 /// KIR3DL3 /// KIR3DL3 /// KIR3DS1 (11738374_at) / RFU C1QL1 (11718748_at) / Fold change /veh C1QL1 (11718748_at) / RFU TMPRSS4 (11747572_a_at) / Fold change /veh TMPRSS4 (11747572_a_at) / RFU HAMP (11756126_x_at) / Fold change /veh HAMP (11756126_x_at) / RFU RNFT2 (11725882_a_at) / Fold change /veh RNFT2 (11725882_a_at) / RFU NR4A2 (11747474_a_at) / Fold change /veh NR4A2 (11747474_a_at) / RFU ABCC12 (11746883_a_at) / Fold change /veh ABCC12 (11746883_a_at) / RFU TMEM136 (11760407_x_at) / Fold change /veh TMEM136 (11760407_x_at) / RFU CLDN22 /// WWC2 (11732394_at) / Fold change /veh CLDN22 /// WWC2 (11732394_at) / RFU HLA-DPB1 (11760878_x_at) / Fold change /veh HLA-DPB1 (11760878_x_at) / RFU SPINT1 (11716480_a_at) / Fold change /veh SPINT1 (11716480_a_at) / RFU GAP43 (11754022_s_at) / Fold change /veh GAP43 (11754022_s_at) / RFU A4GNT (11735810_at) / Fold change /veh A4GNT (11735810_at) / RFU PRB3 (11715151_x_at) / Fold change /veh PRB3 (11715151_x_at) / RFU TUBB4B (11761932_at) / Fold change /veh TUBB4B (11761932_at) / RFU CAPN14 (11732068_a_at) / Fold change /veh CAPN14 (11732068_a_at) / RFU TMCC2 (11721928_a_at) / Fold change /veh TMCC2 (11721928_a_at) / RFU IRGQ (11745062_a_at) / Fold change /veh IRGQ (11745062_a_at) / RFU FAM174B (11720279_a_at) / Fold change /veh FAM174B (11720279_a_at) / RFU TMPRSS4 (11748680_a_at) / Fold change /veh TMPRSS4 (11748680_a_at) / RFU FAM212B (11763350_a_at) / Fold change /veh FAM212B (11763350_a_at) / RFU PLEKHG5 (11743358_a_at) / Fold change /veh PLEKHG5 (11743358_a_at) / RFU ZSCAN30 (11745921_a_at) / Fold change /veh ZSCAN30 (11745921_a_at) / RFU CMKLR1 (11741424_a_at) / Fold change /veh CMKLR1 (11741424_a_at) / RFU LOC101060620 /// MAPK8IP1 (11723275_at) / Fold change /veh LOC101060620 /// MAPK8IP1 (11723275_at) / RFU SPTSSB (11747773_x_at) / Fold change /veh SPTSSB (11747773_x_at) / RFU PRSS12 (11739890_at) / Fold change /veh PRSS12 (11739890_at) / RFU BIN1 (11741810_x_at) / Fold change /veh BIN1 (11741810_x_at) / RFU WNT11 (11732464_a_at) / Fold change /veh WNT11 (11732464_a_at) / RFU C10orf10 (11716521_a_at) / Fold change /veh C10orf10 (11716521_a_at) / RFU C5orf56 (11738089_at) / Fold change /veh C5orf56 (11738089_at) / RFU CYB561 (11721691_x_at) / Fold change /veh CYB561 (11721691_x_at) / RFU ANKRD19P (11752326_a_at) / Fold change /veh ANKRD19P (11752326_a_at) / RFU OR2T12 /// OR2T33 /// OR2T8 (11738714_s_at) / Fold change /veh OR2T12 /// OR2T33 /// OR2T8 (11738714_s_at) / RFU VCAN (11748164_a_at) / Fold change /veh VCAN (11748164_a_at) / RFU JSRP1 (11732532_at) / Fold change /veh JSRP1 (11732532_at) / RFU KRTAP10-11 (11738290_x_at) / Fold change /veh KRTAP10-11 (11738290_x_at) / RFU MYO3A (11730013_a_at) / Fold change /veh MYO3A (11730013_a_at) / RFU EBF3 (11725865_a_at) / Fold change /veh EBF3 (11725865_a_at) / RFU CAMK2N1 (11719241_x_at) / Fold change /veh CAMK2N1 (11719241_x_at) / RFU C5orf56 (11738088_a_at) / Fold change /veh C5orf56 (11738088_a_at) / RFU OLFML3 (11715873_a_at) / Fold change /veh OLFML3 (11715873_a_at) / RFU LOC100653217 /// NTM (11731650_a_at) / Fold change /veh LOC100653217 /// NTM (11731650_a_at) / RFU MAPK11 (11762145_a_at) / Fold change /veh MAPK11 (11762145_a_at) / RFU FIZ1 (11724087_x_at) / Fold change /veh FIZ1 (11724087_x_at) / RFU OASL (11726364_x_at) / Fold change /veh OASL (11726364_x_at) / RFU SOX15 (11748057_x_at) / Fold change /veh SOX15 (11748057_x_at) / RFU CD79A (11719716_a_at) / Fold change /veh CD79A (11719716_a_at) / RFU HIST1H1D (11736915_at) / Fold change /veh HIST1H1D (11736915_at) / RFU CASKIN2 (11723855_a_at) / Fold change /veh CASKIN2 (11723855_a_at) / RFU LOC730098 (11760151_x_at) / Fold change /veh LOC730098 (11760151_x_at) / RFU OR4N2 (11742367_at) / Fold change /veh OR4N2 (11742367_at) / RFU PRRT2 (11749266_a_at) / Fold change /veh PRRT2 (11749266_a_at) / RFU SNX32 (11753110_a_at) / Fold change /veh SNX32 (11753110_a_at) / RFU CDHR5 (11726645_a_at) / Fold change /veh CDHR5 (11726645_a_at) / RFU RCAN1 (11760418_a_at) / Fold change /veh RCAN1 (11760418_a_at) / RFU FAM167A (11723789_a_at) / Fold change /veh FAM167A (11723789_a_at) / RFU FAM26E (11764081_at) / Fold change /veh FAM26E (11764081_at) / RFU ISYNA1 (11749810_s_at) / Fold change /veh ISYNA1 (11749810_s_at) / RFU ACY1 (11761880_at) / Fold change /veh ACY1 (11761880_at) / RFU 11764098_at / Fold change /veh 11764098_at / RFU SAMD14 (11745864_x_at) / Fold change /veh SAMD14 (11745864_x_at) / RFU NPB (11741838_a_at) / Fold change /veh NPB (11741838_a_at) / RFU TMPRSS6 (11731388_a_at) / Fold change /veh TMPRSS6 (11731388_a_at) / RFU KRTAP10-2 (11738614_at) / Fold change /veh KRTAP10-2 (11738614_at) / RFU ARHGAP8 /// PRR5-ARHGAP8 (11727945_x_at) / Fold change /veh ARHGAP8 /// PRR5-ARHGAP8 (11727945_x_at) / RFU KRTAP5-7 /// NADSYN1 (11734609_at) / Fold change /veh KRTAP5-7 /// NADSYN1 (11734609_at) / RFU RASL12 (11751679_a_at) / Fold change /veh RASL12 (11751679_a_at) / RFU CDKN2B (11736163_a_at) / Fold change /veh CDKN2B (11736163_a_at) / RFU PRF1 (11729649_at) / Fold change /veh PRF1 (11729649_at) / RFU, ZNF638 /// ZNF638-IT1 / Fold change vs veh, ZNF638 /// ZNF638-IT1 / RFU, PANK3 / Fold change vs veh, PANK3 / RFU, SH3YL1 / Fold change vs veh, SH3YL1 / RFU, ZEB2 / Fold change vs veh, ZEB2 / RFU, NRIP1 / Fold change vs veh, NRIP1 / RFU, PTTG1IP / Fold change vs veh, PTTG1IP / RFU, CAPN2 / Fold change vs veh, CAPN2 / RFU, MED14 / Fold change vs veh, MED14 / RFU, SNORA58 / Fold change vs veh, SNORA58 / RFU, C1orf63 / Fold change vs veh, C1orf63 / RFU, LRRFIP1 / Fold change vs veh, LRRFIP1 / RFU, NDUFAF7 / Fold change vs veh, NDUFAF7 / RFU, SLC12A2 / Fold change vs veh, SLC12A2 / RFU, IBTK / Fold change vs veh, IBTK / RFU, ESF1 / Fold change vs veh, ESF1 / Fold change vs veh, TMEM50B / RFU, TAOK1 / Fold change vs veh, TAOK1 / RFU, ACBD3 / Fold change vs veh, ACBD3 / RFU, TMA16 / Fold change vs veh, TMA16 / RFU, RWDD3 / Fold change vs veh, RWDD3 / RFU, BCAT1 / Fold change vs veh, BCAT1 / RFU, EDEM3 / Fold change vs veh, EDEM3 / RFU, TMEM33 / Fold change vs veh, TMEM33 / RFU, WDR75 / Fold change vs veh, WDR75 / RFU, AHCTF1 / Fold change vs veh, AHCTF1 / RFU, TFRC / Fold change vs veh, TFRC / RFU, ZDHHC17 / Fold change vs veh, ZDHHC17 / RFU, NOM1 / Fold change vs veh, NOM1 / RFU, ARL8B / Fold change vs veh, ARL8B / RFU, ZBTB11 / Fold change vs veh, ZBTB11 / RFU, TAMM41 / Fold change vs veh, TAMM41 / RFU, KIAA1704 /// LOC100996395 / Fold change vs veh, KIAA1704 /// LOC100996395 / RFU, ING1 / Fold change vs veh, ING1 / RFU, TRMT61B / Fold change vs veh, TRMT61B / RFU, FUBP3 / Fold change vs veh, FUBP3 / RFU, TP53 / Fold change vs veh, TP53 / RFU, TNKS2 / Fold change vs veh, TNKS2 / RFU, ZFP14 / Fold change vs veh, ZFP14 / RFU, ACTR2 / Fold change vs veh, ACTR2 / RFU, PPP3R1 / Fold change vs veh, PPP3R1 / RFU, PIK3R1 / Fold change vs veh, PIK3R1 / RFU, HNRNPA1 / Fold change vs veh, HNRNPA1 / RFU, RNF170 / Fold change vs veh, RNF170 / RFU, ZNF28 / Fold change vs veh, ZNF28 / RFU, RNGTT / Fold change vs veh, RNGTT / RFU, OGT / Fold change vs veh, OGT / RFU, BRD1 / Fold change vs veh, BRD1 / RFU, MARS / Fold change vs veh, MARS / RFU, ZNF655 / Fold change vs veh, ZNF655 / RFU, FAHD1 / Fold change vs veh, FAHD1 / RFU, BDP1 / Fold change vs veh, BDP1 / RFU, LRRCC1 / Fold change vs veh, LRRCC1 / RFU, ARID1A / Fold change vs veh, ARID1A / RFU, ZNF146 / Fold change vs veh, ZNF146 / RFU, ZNF330 / Fold change vs veh, ZNF330 / RFU, GPN3 / Fold change vs veh, GPN3 / RFU, C9orf123 / Fold change vs veh, C9orf123 / RFU, N4BP2L2 / Fold change vs veh, N4BP2L2 / RFU, ARFIP1 / Fold change vs veh, ARFIP1 / RFU, FAM179B / Fold change vs veh, FAM179B / RFU, BCL10 / Fold change vs veh, BCL10 / RFU, UHRF1BP1L / Fold change vs veh, UHRF1BP1L / RFU, BET1 / Fold change vs veh, BET1 / RFU, CNOT2 / Fold change vs veh, CNOT2 / RFU, ZNF268 / Fold change vs veh, ZNF268 / Fold change vs veh, ZNF507 / RFU, DGCR2 / Fold change vs veh, DGCR2 / RFU, WDSUB1 / Fold change vs veh, WDSUB1 / Fold change vs veh, HSP90B1 /// MIR3652 / RFU, ADSS / Fold change vs veh, ADSS / RFU, GK / Fold change vs veh, GK / RFU, ZNF148 / Fold change vs veh, ZNF148 / RFU, TAF9 / Fold change vs veh, TAF9 / RFU, SLC1A5 / Fold change vs veh, SLC1A5 / RFU, SLMO2 / Fold change vs veh, SLMO2 / RFU, ABCC4 / Fold change vs veh, ABCC4 / RFU, LOC101060439 /// RAP1B / Fold change vs veh, LOC101060439 /// RAP1B / RFU, RFX7 / Fold change vs veh, RFX7 / RFU, GTPBP10 / Fold change vs veh, GTPBP10 / RFU, CNEP1R1 / Fold change vs veh, CNEP1R1 / RFU, BIVM-ERCC5 /// ERCC5 / Fold change vs veh, BIVM-ERCC5 /// ERCC5 / RFU, ILF3 / Fold change vs veh, ILF3 / RFU 11762660_at / Fold change /veh 11762660_at / RFU VCAN (11757783_s_at) / Fold change /veh VCAN (11757783_s_at) / RFU DDX43 (11728927_at) / Fold change /veh DDX43 (11728927_at) / RFU KRT8 (11758188_x_at) / Fold change /veh KRT8 (11758188_x_at) / RFU NKD1 (11759106_at) / Fold change /veh NKD1 (11759106_at) / RFU SRD5A1 (11742802_a_at) / Fold change /veh SRD5A1 (11742802_a_at) / RFU TPSAB1 /// TPSB2 (11721975_s_at) / Fold change /veh TPSAB1 /// TPSB2 (11721975_s_at) / RFU GSTM3 (11746129_a_at) / Fold change /veh GSTM3 (11746129_a_at) / RFU IL23R (11737362_x_at) / Fold change /veh IL23R (11737362_x_at) / RFU TMEM51 (11727254_a_at) / Fold change /veh TMEM51 (11727254_a_at) / RFU PIWIL2 (11732686_x_at) / Fold change /veh PIWIL2 (11732686_x_at) / RFU ORM1 (11744905_x_at) / Fold change /veh ORM1 (11744905_x_at) / RFU CCDC152 (11743942_at) / Fold change /veh CCDC152 (11743942_at) / RFU ECM1 (11717891_a_at) / Fold change /veh ECM1 (11717891_a_at) / RFU IL23R (11748794_a_at) / Fold change /veh IL23R (11748794_a_at) / RFU TNFAIP8L3 (11732012_x_at) / Fold change /veh TNFAIP8L3 (11732012_x_at) / RFU MBOAT4 (11741988_at) / Fold change /veh MBOAT4 (11741988_at) / RFU 11764193_at / Fold change /veh 11764193_at / RFU TMEM53 (11763286_at) / Fold change /veh TMEM53 (11763286_at) / RFU MAGEB2 (11727129_at) / Fold change /veh MAGEB2 (11727129_at) / RFU TMEM200A (11744735_a_at) / Fold change /veh TMEM200A (11744735_a_at) / RFU CCDC152 (11751479_a_at) / Fold change /veh CCDC152 (11751479_a_at) / RFU FAM211A (11726209_a_at) / Fold change /veh FAM211A (11726209_a_at) / RFU RGS16 (11746705_a_at) / Fold change /veh RGS16 (11746705_a_at) / RFU VCAN (11755009_s_at) / Fold change /veh VCAN (11755009_s_at) / RFU RHOB (11743442_s_at) / Fold change /veh RHOB (11743442_s_at) / RFU RGS16 (11720943_a_at) / Fold change /veh RGS16 (11720943_a_at) / RFU RGS16 (11720944_at) / Fold change /veh RGS16 (11720944_at) / RFU, VPS4B / Fold change vs veh, VPS4B / RFU, CREB1 / Fold change vs veh, CREB1 / RFU, DNAJC13 / Fold change vs veh, DNAJC13 / RFU, GNAQ / Fold change vs veh, GNAQ / RFU, CDK5R1 / Fold change vs veh, CDK5R1 / RFU, ZRANB3 / Fold change vs veh, ZRANB3 / RFU, CUL4A / Fold change vs veh, CUL4A / RFU, CCNY / Fold change vs veh, CCNY / RFU, UFL1 / Fold change vs veh, UFL1 / RFU, COG3 / Fold change vs veh, COG3 / RFU, DIAPH2 / Fold change vs veh, DIAPH2 / RFU, SKA2 / Fold change vs veh, SKA2 / RFU, AFF3 / Fold change vs veh, AFF3 / RFU, LMF1 / Fold change vs veh, LMF1 / RFU, IPO11 / Fold change vs veh, IPO11 / RFU, DFFB / Fold change vs veh, DFFB / RFU, FOXP1 / Fold change vs veh, FOXP1 / RFU, CARD8 / Fold change vs veh, CARD8 / RFU, STRN3 / Fold change vs veh, STRN3 / RFU, ADK / Fold change vs veh, ADK / RFU, RASSF2 / Fold change vs veh, RASSF2 / RFU, WIPF1 / Fold change vs veh, WIPF1 / RFU, LARP1B / Fold change vs veh, LARP1B / RFU, RASA1 / Fold change vs veh, RASA1 / RFU, RB1 / Fold change vs veh, RB1 / RFU, PPFIA1 / Fold change vs veh, PPFIA1 / RFU, MAT2A / Fold change vs veh, MAT2A / RFU, CCT5 / Fold change vs veh, CCT5 / RFU, WDR92 / Fold change vs veh, WDR92 / RFU, CUX1 / Fold change vs veh, CUX1 / RFU, TTC7A / Fold change vs veh, TTC7A / RFU, TMEM135 / Fold change vs veh, TMEM135 / RFU, DEPTOR / Fold change vs veh, DEPTOR / RFU, CPM / Fold change vs veh, CPM / RFU, DNAJB6 / Fold change vs veh, DNAJB6 / RFU, CACNA2D3 / Fold change vs veh, CACNA2D3 / RFU, DTX4 / Fold change vs veh, DTX4 / RFU, TFCP2 / Fold change vs veh, TFCP2 / RFU, GMCL1 /// GMCL1P1 / Fold change vs veh, GMCL1 /// GMCL1P1 / RFU, AEBP2 / Fold change vs veh, AEBP2 / RFU, SNHG1 /// SNORD22 /// SNORD25 /// SNORD26 /// SNORD27 /// SNORD28 /// SNORD29 /// SNORD31 / Fold change vs veh, SNHG1 /// SNORD22 /// SNORD25 /// SNORD26 /// SNORD27 /// SNORD28 /// SNORD29 /// SNORD31 / Fold change (Aza/veh), C12orf56 (ProbeSet 11735607_a_at) / Fold change (ACY-1035/veh), C12orf56 (ProbeSet 11735607_a_at) / Fold change (Aza/veh), FGFR1OP (ProbeSet 11751329_s_at) / Fold change (ACY-1035/veh), FGFR1OP (ProbeSet 11751329_s_at) / Fold change (Aza/veh), VPS36 (ProbeSet 11739960_a_at) / Fold change (ACY-1035/veh), VPS36 (ProbeSet 11739960_a_at) / RFU SYPL1 (11715823_x_at) / Fold change /veh SYPL1 (11715823_x_at) / RFU IGFBP7 (11715501_s_at) / Fold change /veh IGFBP7 (11715501_s_at) / RFU REEP3 (11722064_at) / Fold change /veh REEP3 (11722064_at) / RFU IGLL1 (11728026_x_at) / Fold change /veh IGLL1 (11728026_x_at): dose or concentration left out as unconfirmed
Details: ProbeSet 11720269_a_at; LIST B

Nc1ccc(-c2cccs2)cc1NC(=O)c1ccc2c(c1)cc(C1CC1)n2CCN1CCOCC1 [ACY-1035]
Fold change vs veh, IBTK: 0.93
